Assay results reported in patent US20230263742A1, “A LIPID” (Stemirna Therapeutics Co., Ltd., priority 2021, published 2023).

How the values were obtained:
[1] = Encapsulation efficiency (RIBOGREEN kit); type: physicochemical; conditions: Luc mRNA-LNP 50:10:38.5:1.5
Procedure: For nanoparticle compositions including an RNA, a QUANT-IT™ RIBOGREENR®RNA assay (Invitrogen Corporation Carlsbad, Calif.) can be used to evaluate the encapsulation of an RNA by the nanoparticle composition. The samples were diluted to a concentration of approximately 5 μg/mL in a TE buffer solution (10 mM Tris-HCl, 1 mM EDTA, pH 7.5). 50 μL of the diluted samples are transferred to a polystyrene 96 well plate and either 50 μL of TE buffer or 50 μL of a 2% Triton X-100 solution is added to the wells. The plate is incubated at a temperature of 37° C. for 15 minutes. The RIBOGREENR reagent is diluted 1:100 in TE buffer and 100 μL of this solution is added to each well. The fluorescence intensity can be measured using a fluorescence plate reader (Wallac Victor 1420 Multilablel Counter; Perkin Elmer, Waltham, Mass.) at an excitation wavelength of, for example, about 480 nm and an emission wavelength of, for example, about 520 nm. The fluorescence values of the reagent blank are subtracted from that of each of the samples and the percentage of free RNA is determined by dividing the fluorescence intensity of the intact sample (without addition of Triton X-100) by the fluorescence value of the disrupted sample (caused by the addition of Triton X-100).
Encapsulation efficiency detection method: LNP content and encapsulation efficiency detection were carried out according to the RIBOGREEN kit.

Balb/C mice [2] = assay: In vivo Luc expression after intramuscular injection, compared with MC3 (Example 4); conditions: 5 μg Luc mRNA-LNP (DSPC) intramuscularly, Balb/C mice n=3, 6 hours
Procedure: The mRNA nanoparticle compositions of SW-II-118, SW-120, and SW-121 were prepared according to the method provided in Example 3. The ratios of the lipids were 50:10:38.5:1.5 mol % for cationic lipid: DSPC: cholesterol: PEG-DMG. The cationic lipid MC3 was a current standard in the art. Accordingly, the standard MC3 formulation including 50 mol % MC3, 10 mol % DSPC, 38.5 mol % cholesterol, and 1.5 mol % PEG-DMG was used as a reference for this study.
5 μg of Luc mRNA-LNP of MC3, SW-II-118, SW-II-120, or SW-II-121 was intramuscularly injected into Balb/C mice (n=3). 6 hours after the administration, the mice were injected intraperitoneally with 0.15 mg/kg […] substrate. 15 minutes after the injection of the substrate, the fluorescence signal intensity was tested under a small animal in vivo imaging instrument.

[3] = Particle size, PDI and zeta potential by dynamic light scattering; type: physicochemical; conditions: for PDI / Zeta potential: Luc mRNA-LNP 50:10:38.5:1.5; for Size: Luc mRNA-LNP, lipid:phospholipid:cholesterol:PEG-DMG 50:10:38.5:1.5
Procedure: A Zetasizer Nano ZS (Malvern Instruments Ltd, Malvern, Worcestershire, UK) can be used to determine the particle size, the polydispersity index (PDI) and the zeta (ζ) potential of the nanoparticle compositions in 1×PBS in determining particle size and 15 mM PBS in determining zeta (ζ) potential.
The evaluation method of particle size and zeta potential: 50 μL LNP sample was diluted with 950 μL purified water to obtain the diluted LNP sample. The sample was placed in a dynamic light scattering laser particle size analyzer (Malvern, ZS-90) for testing.

Balb/C mice [4] = assay: In vivo Luc expression after tail vein injection of Luc mRNA-LNP; conditions: 5 μg Luc mRNA-LNP tail vein, 6 hours
Procedure: In vivo expression evaluation method: 5 μg Luc (luciferase) mRNA-LNP solution of SW-II-118, SW-120, or SW-121 were injected into the tail vein of Balb/C mice. 6 hours after the administration, the mice are injected 0.15 mg/kg of […] substrate intraperitoneally. Within 15 minutes after the injection of the substrate, the fluorescence signal intensity was tested under a small animal in vivo imaging instrument.

C2C12 cells = assay: In vitro cell Luc expression, C2C12; type: cell-based; conditions: 100 ng Luc mRNA-LNP, 24 h
Procedure: (§1) In vitro cell expression evaluation method: C2C12 cells, HepG2 cells, A20 cells were cultured, and 100,000 cells per well were plated on a 96-well plate. 100 ng of LNP samples were mixed with the cells and incubated for 24 hours (n=3), and then the expression was detected using luciferase quantitative kit 24 h after administration.

HepG2 cells = assay: In vitro cell Luc expression, HepG2; type: cell-based; conditions: 100 ng Luc mRNA-LNP, 24 h
Procedure: as §1

cells = assay: Cytotoxicity, CCK-8 cell viability; type: cell-based; conditions: 200 ng LNP, 24 h, CCK-8, vs cells blank
Procedure: Evaluation method of cytotoxicity: 200 ng of LNP samples were mixed with cells and incubated for 24 h, then the viability was detected using CCK-8 cell viability detection kit. 10 μl of CCK-8 detection reagent was added to the transfected cells and the OD value was detected using a microplate reader at a detection wavelength of 450 nm. The cell viability percentage is obtained by comparing the OD value with that of the cells blank.

Encapsulation Efficiency (EE, %) ([1]; phospholipid DAPC): 76.6%
Encapsulation Efficiency (EE, %) ([1]; phospholipid DMPE): 70.9%
Encapsulation Efficiency (EE, %) ([1]; phospholipid DOPE): 81.5%
Encapsulation Efficiency (EE, %) ([1]; phospholipid DPPC): 86.7%
Encapsulation Efficiency (EE, %) ([1]; phospholipid DPPE): 84.0%
Encapsulation Efficiency (EE, %) ([1]; phospholipid DSPC): 86.0%
Encapsulation Efficiency (EE, %) ([1]; phospholipid DSPE): 68.5%
PDI ([3]; phospholipid DAPC): 0.27 ± 0.01
Zeta potential ([3]; phospholipid DAPC): −2.21 ± 0.53 mV
Size ([3]; phospholipid DAPC): 96.3 ± 2.2 nm
PDI ([3]; phospholipid DMPE): 0.20 ± 0.03
Zeta potential ([3]; phospholipid DMPE): 0.01 ± 0.35 mV
Size ([3]; phospholipid DMPE): 139.8 ± 1.1 nm
PDI ([3]; phospholipid DOPE): 0.17 ± 0.03
Zeta potential ([3]; phospholipid DOPE): 5.06 ± 0.15 mV
Size ([3]; phospholipid DOPE): 159.87 ± 3.7 nm
PDI ([3]; phospholipid DPPC): 0.22 ± 0.02
Zeta potential ([3]; phospholipid DPPC): −1.23 ± 1.43 mV
Size ([3]; phospholipid DPPC): 98.7 ± 1.7 nm
PDI ([3]; phospholipid DPPE): 0.17 ± 0.03
Zeta potential ([3]; phospholipid DPPE): −0.29 ± 0.31 mV
Size ([3]; phospholipid DPPE): 98.4 ± 2.7 nm
PDI ([3]; phospholipid DSPC): 0.22 ± 0.03
Zeta potential ([3]; phospholipid DSPC): −1.18 ± 1.18 mV
Size ([3]; phospholipid DSPC): 98.5 ± 1.5 nm
PDI ([3]; phospholipid DSPE): 0.17 ± 0.03
Zeta potential ([3]; phospholipid DSPE): −9.60 ± 2.10 mV
Size ([3]; phospholipid DSPE): 116.3 ± 0.2 nm
SMILES: CCCCCCCCC(CCCCCCCC)OC(=O)CCCCCCCN(CCO)CCCCCCCC(=O)OCCc1ccc(CCCCCCC)cc1 [SW-II-121]
Luc expression in liver site compared with injection site (FIG. 2) (Balb/C mice [2]): higher than that in injection site
in vivo Luc expressions (FIG. 2) (Balb/C mice [2]; compared with MC3): higher than that of MC3
In vivo expression (Balb/C mice [4]; phospholipid DAPC): 156336666.7 p/sec/cm^2/sr
In vivo expression (Balb/C mice [4]; phospholipid DMPE): 78216666.7 p/sec/cm^2/sr
In vivo expression (Balb/C mice [4]; phospholipid DOPE): 47516666.7 p/sec/cm^2/sr
In vivo expression (Balb/C mice [4]; phospholipid DPPC): 36323333.3 p/sec/cm^2/sr
In vivo expression (Balb/C mice [4]; phospholipid DPPE): 46183333.3 p/sec/cm^2/sr
In vivo expression (Balb/C mice [4]; phospholipid DSPC): 12494333.3 p/sec/cm^2/sr
In vivo expression (Balb/C mice [4]; phospholipid DSPE): 19344666.7 p/sec/cm^2/sr
C2C12 cell, in vitro expression (C2C12 cells; phospholipid DAPC): 24183
C2C12 cell, in vitro expression (C2C12 cells; phospholipid DMPE): 219379.5
C2C12 cell, in vitro expression (C2C12 cells; phospholipid DOPE): 1003834.5
C2C12 cell, in vitro expression (C2C12 cells; phospholipid DPPC): 93988
C2C12 cell, in vitro expression (C2C12 cells; phospholipid DPPE): 246921
C2C12 cell, in vitro expression (C2C12 cells; phospholipid DSPC): 93333
C2C12 cell, in vitro expression (C2C12 cells; phospholipid DSPE): 41556.5
HepG2 cell, in vitro expression (HepG2 cells; phospholipid DAPC): 3110
HepG2 cell, in vitro expression (HepG2 cells; phospholipid DMPE): 16466
HepG2 cell, in vitro expression (HepG2 cells; phospholipid DOPE): 42994.5
HepG2 cell, in vitro expression (HepG2 cells; phospholipid DPPC): 16064
HepG2 cell, in vitro expression (HepG2 cells; phospholipid DPPE): 25349.5
HepG2 cell, in vitro expression (HepG2 cells; phospholipid DSPC): 7932
HepG2 cell, in vitro expression (HepG2 cells; phospholipid DSPE): 1211.5
Viability (%) (cells; phospholipid DAPC): 111.1%
Viability (%) (cells; phospholipid DMPE): 108.5%
Viability (%) (cells; phospholipid DOPE): 107.5%
Viability (%) (cells; phospholipid DPPC): 109.64%
Viability (%) (cells; phospholipid DPPE): 108.0%
Viability (%) (cells; phospholipid DSPC): 123.3%
Viability (%) (cells; phospholipid DSPE): 137.0%
